Data from the NIST ThermoML archive (doi:10.1021/je4009238).
Numbers after ± are expanded uncertainties.

Experiment: xn = mol fraction of the nth substance listed
Details: 101 kPa, Liquid

Compound: CCCCn1cc[n+](C)c1.[Cl-] [1-butyl-3-methylimidazolium chloride] + CN(C)C=O
- mass density (288.15 K, x1 = 0.0086): 957.7 ± 0.81 kg/m3
- viscosity (288.15 K, x1 = 0.0086): 1.064 ± 0.11 mPa·s
- mass density (288.15 K, x1 = 0.0172): 961.03 ± 0.79 kg/m3
- viscosity (288.15 K, x1 = 0.0172): 1.13 ± 0.12 mPa·s
- mass density (288.15 K, x1 = 0.026): 964.09 ± 0.77 kg/m3
- viscosity (288.15 K, x1 = 0.026): 1.234 ± 0.12 mPa·s
- mass density (288.15 K, x1 = 0.0351): 967.36 ± 0.75 kg/m3
- viscosity (288.15 K, x1 = 0.0351): 1.358 ± 0.13 mPa·s
- mass density (288.15 K, x1 = 0.0443): 970.51 ± 0.74 kg/m3
- viscosity (288.15 K, x1 = 0.0443): 1.441 ± 0.13 mPa·s
- mass density (288.15 K, x1 = 0.0541): 973.65 ± 0.72 kg/m3
- viscosity (288.15 K, x1 = 0.0541): 1.571 ± 0.14 mPa·s
- mass density (288.15 K, x1 = 0.0638): 976.87 ± 0.7 kg/m3
- viscosity (288.15 K, x1 = 0.0638): 1.678 ± 0.15 mPa·s
- mass density (288.15 K, x1 = 0.0738): 979.65 ± 0.68 kg/m3
- viscosity (288.15 K, x1 = 0.0738): 1.865 ± 0.16 mPa·s
- mass density (288.15 K, x1 = 0.0841): 982.76 ± 0.66 kg/m3
- viscosity (288.15 K, x1 = 0.0841): 2.004 ± 0.17 mPa·s
- mass density (288.15 K, x1 = 0.0947): 985.77 ± 0.65 kg/m3
- viscosity (288.15 K, x1 = 0.0947): 2.24 ± 0.18 mPa·s
- mass density (288.15 K, x1 = 0.1056): 988.72 ± 0.63 kg/m3
- viscosity (288.15 K, x1 = 0.1056): 2.397 ± 0.19 mPa·s
- mass density (288.15 K, x1 = 0.1167): 991.56 ± 0.61 kg/m3
- viscosity (288.15 K, x1 = 0.1167): 2.589 ± 0.2 mPa·s
- mass density (288.15 K, x1 = 0.1282): 994.51 ± 0.6 kg/m3
- viscosity (288.15 K, x1 = 0.1282): 2.95 ± 0.22 mPa·s
- mass density (288.15 K, x1 = 0.1399): 997.33 ± 0.58 kg/m3
- viscosity (288.15 K, x1 = 0.1399): 3.196 ± 0.24 mPa·s
- mass density (288.15 K, x1 = 0.152): 1000.15 ± 0.57 kg/m3
- viscosity (288.15 K, x1 = 0.152): 3.685 ± 0.27 mPa·s
- mass density (298.15 K, x1 = 0.0086): 948.35 ± 0.87 kg/m3
- viscosity (298.15 K, x1 = 0.0086): 0.9285 ± 0.11 mPa·s
- mass density (298.15 K, x1 = 0.0172): 951.98 ± 0.85 kg/m3
- viscosity (298.15 K, x1 = 0.0172): 0.9836 ± 0.11 mPa·s
- mass density (298.15 K, x1 = 0.026): 954.91 ± 0.83 kg/m3
- viscosity (298.15 K, x1 = 0.026): 1.069 ± 0.12 mPa·s
- mass density (298.15 K, x1 = 0.0351): 958.49 ± 0.81 kg/m3
- viscosity (298.15 K, x1 = 0.0351): 1.173 ± 0.12 mPa·s
- mass density (298.15 K, x1 = 0.0443): 961.51 ± 0.79 kg/m3
- viscosity (298.15 K, x1 = 0.0443): 1.234 ± 0.12 mPa·s
- mass density (298.15 K, x1 = 0.0541): 964.75 ± 0.77 kg/m3
- viscosity (298.15 K, x1 = 0.0541): 1.343 ± 0.13 mPa·s
- mass density (298.15 K, x1 = 0.0638): 968.06 ± 0.75 kg/m3
- viscosity (298.15 K, x1 = 0.0638): 1.444 ± 0.14 mPa·s
- mass density (298.15 K, x1 = 0.0738): 970.86 ± 0.74 kg/m3
- viscosity (298.15 K, x1 = 0.0738): 1.59 ± 0.14 mPa·s
- mass density (298.15 K, x1 = 0.0841): 974.08 ± 0.72 kg/m3
- viscosity (298.15 K, x1 = 0.0841): 1.679 ± 0.15 mPa·s
- mass density (298.15 K, x1 = 0.0947): 977.24 ± 0.7 kg/m3
- viscosity (298.15 K, x1 = 0.0947): 1.8 ± 0.16 mPa·s
- mass density (298.15 K, x1 = 0.1056): 980.16 ± 0.68 kg/m3
- viscosity (298.15 K, x1 = 0.1056): 1.978 ± 0.17 mPa·s
- mass density (298.15 K, x1 = 0.1167): 983.01 ± 0.67 kg/m3
- viscosity (298.15 K, x1 = 0.1167): 2.126 ± 0.17 mPa·s
- mass density (298.15 K, x1 = 0.1282): 986.1 ± 0.65 kg/m3
- viscosity (298.15 K, x1 = 0.1282): 2.379 ± 0.19 mPa·s
- mass density (298.15 K, x1 = 0.1399): 988.96 ± 0.63 kg/m3
- viscosity (298.15 K, x1 = 0.1399): 2.582 ± 0.2 mPa·s
- mass density (298.15 K, x1 = 0.152): 991.87 ± 0.61 kg/m3
- viscosity (298.15 K, x1 = 0.152): 2.907 ± 0.22 mPa·s
- mass density (308.15 K, x1 = 0.0086): 938.9 ± 0.93 kg/m3
- viscosity (308.15 K, x1 = 0.0086): 0.8223 ± 0.1 mPa·s
- mass density (308.15 K, x1 = 0.0172): 942.61 ± 0.91 kg/m3
- viscosity (308.15 K, x1 = 0.0172): 0.8668 ± 0.11 mPa·s
- mass density (308.15 K, x1 = 0.026): 945.63 ± 0.89 kg/m3
- viscosity (308.15 K, x1 = 0.026): 0.9394 ± 0.11 mPa·s
- mass density (308.15 K, x1 = 0.0351): 949.34 ± 0.87 kg/m3
- viscosity (308.15 K, x1 = 0.0351): 1.022 ± 0.11 mPa·s
- mass density (308.15 K, x1 = 0.0443): 952.42 ± 0.85 kg/m3
- viscosity (308.15 K, x1 = 0.0443): 1.097 ± 0.12 mPa·s
- mass density (308.15 K, x1 = 0.0541): 955.77 ± 0.83 kg/m3
- viscosity (308.15 K, x1 = 0.0541): 1.166 ± 0.12 mPa·s
- mass density (308.15 K, x1 = 0.0638): 959.15 ± 0.81 kg/m3
- viscosity (308.15 K, x1 = 0.0638): 1.239 ± 0.12 mPa·s
- mass density (308.15 K, x1 = 0.0738): 962.05 ± 0.79 kg/m3
- viscosity (308.15 K, x1 = 0.0738): 1.362 ± 0.13 mPa·s
- mass density (308.15 K, x1 = 0.0841): 965.29 ± 0.77 kg/m3
- viscosity (308.15 K, x1 = 0.0841): 1.432 ± 0.13 mPa·s
- mass density (308.15 K, x1 = 0.0947): 968.56 ± 0.75 kg/m3
- viscosity (308.15 K, x1 = 0.0947): 1.524 ± 0.14 mPa·s
- mass density (308.15 K, x1 = 0.1056): 971.53 ± 0.73 kg/m3
- viscosity (308.15 K, x1 = 0.1056): 1.665 ± 0.15 mPa·s
- mass density (308.15 K, x1 = 0.1167): 974.49 ± 0.72 kg/m3
- viscosity (308.15 K, x1 = 0.1167): 1.782 ± 0.15 mPa·s
- mass density (308.15 K, x1 = 0.1282): 977.64 ± 0.7 kg/m3
- viscosity (308.15 K, x1 = 0.1282): 1.963 ± 0.17 mPa·s
- mass density (308.15 K, x1 = 0.1399): 980.61 ± 0.68 kg/m3
- viscosity (308.15 K, x1 = 0.1399): 2.135 ± 0.18 mPa·s
- mass density (308.15 K, x1 = 0.152): 983.6 ± 0.67 kg/m3
- viscosity (308.15 K, x1 = 0.152): 2.351 ± 0.19 mPa·s
